Experimental data taken from patent US11691969B2, “Pyridazinones as PARP7 inhibtors” (Ribon Therapeutics, Inc., priority 2019, dated 2023).

Each molecule was assayed against PARP7 (Homo sapiens (Human), UniProt Q7Z3E1) (assay: TR-FRET assay: displacement of biotinylated Probe A from the TIPARP active site (Enzymatic Assay for Inhibition of PARP7)). Settings: TIPARP 6 nM, Probe A 2 nM, 25° C.
Type: binding
Outline: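 6 nM His-tagged TIPARP and 2 nM biotinylated Probe A preincubated with compound 30 min at 25 °C in HEPES pH 8 buffer, then 4 nM ULight-anti-6×His and 0.25 nM Eu-streptavidin added for 30 min more. 665/615 nm ratio normalised to DMSO and 100 μM reference inhibitor controls; IC50 from 4-parameter fit.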

Chain of PARP7 (Q7Z3E1 whole entry): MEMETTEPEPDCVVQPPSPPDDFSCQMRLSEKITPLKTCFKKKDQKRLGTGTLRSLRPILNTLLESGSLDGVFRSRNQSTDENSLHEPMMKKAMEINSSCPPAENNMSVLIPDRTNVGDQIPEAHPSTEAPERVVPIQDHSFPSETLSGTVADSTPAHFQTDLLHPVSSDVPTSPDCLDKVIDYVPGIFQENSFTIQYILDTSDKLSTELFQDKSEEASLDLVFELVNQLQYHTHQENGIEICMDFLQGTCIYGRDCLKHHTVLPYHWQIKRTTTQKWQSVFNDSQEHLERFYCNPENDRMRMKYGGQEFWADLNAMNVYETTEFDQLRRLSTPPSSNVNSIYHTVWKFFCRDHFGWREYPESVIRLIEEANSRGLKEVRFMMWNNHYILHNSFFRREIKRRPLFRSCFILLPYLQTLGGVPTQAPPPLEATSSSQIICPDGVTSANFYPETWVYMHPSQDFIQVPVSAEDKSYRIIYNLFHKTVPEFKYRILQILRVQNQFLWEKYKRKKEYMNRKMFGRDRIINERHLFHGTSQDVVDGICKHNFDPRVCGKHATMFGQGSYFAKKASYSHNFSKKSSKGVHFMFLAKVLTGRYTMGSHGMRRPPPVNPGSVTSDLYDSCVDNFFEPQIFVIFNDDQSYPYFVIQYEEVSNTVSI

| IC50 [µM] | Compound |
| --- | --- |
| < 0.1 | C[C@@H](CO[C@@H]1CCN([C@@H]2CCN(c3ncc(C(F)(F)F)cn3)C[C@H]2O)C1=O)Nc1cn[nH]c(=O)c1C(F)(F)F [Example 57, 5-(((S)-1-(((R)-1-((3R,4R)-3-hydroxy-1-(5-(trifluoromethyl)pyrimidin-2-yl)piperidin-4-yl)-2-oxopyrrolidin-3-yl)oxy)propan-2-yl)amino)-4-(trifluoromethyl)pyridazin-3(2H)-one] |
| < 0.1 | C[C@@H](CO[C@H]1CCN(C2CCN(c3ncc(C(F)(F)F)cn3)CC2O)C1=O)Oc1cn[nH]c(=O)c1C(F)(F)F (stereo partly drawn) [Example 64A, Syn-5-(((2S)-1-(((3S)-1-(3-hydroxy-1-(5-(trifluoromethyl)pyrimidin-2-yl)piperidin-4-yl)-2-oxopyrrolidin-3-yl)oxy)propan-2-yl)oxy)-4-(trifluoromethyl)pyridazin-3(2H)-one] |
| < 0.1 | C[C@@H](COCC(=O)N[C@H]1CCN(c2ncc(C(F)(F)F)cn2)C[C@@H]1O)Nc1cn[nH]c(=O)c1C(F)(F)F (single isomer, unassigned) [Example 33B] |
| < 0.1 | C[C@@H](CO[C@@H]1CCN([C@H]2CCN(c3ncc(C(F)(F)F)cn3)C[C@@H]2O)C1=O)Nc1cn[nH]c(=O)c1C(F)(F)F [Example 58, 5-(((S)-1-(((R)-1-((3S,4S)-3-hydroxy-1-(5-(trifluoromethyl)pyrimidin-2-yl)piperidin-4-yl)-2-oxopyrrolidin-3-yl)oxy)propan-2-yl)amino)-4-(trifluoromethyl)pyridazin-3(2H)-one] |
| 0.1 to 1 | C[C@H](CN[C@@H]1CCN(C2CCN(c3ncc(C(F)(F)F)cn3)CC2)C1=O)Nc1cn[nH]c(=O)c1C(F)(F)F (single isomer, unassigned) [Example 26D] |
| < 0.1 | C[C@@H](CO[C@@H]1CCN(C2CCN(c3ncc(C(F)(F)F)cn3)CC2)C1=O)Nc1cn[nH]c(=O)c1Br [Example 32, 4-bromo-5-(((S)-1-(((R)-2-oxo-1-(1-(5-(trifluoromethyl)pyrimidin-2-yl)piperidin-4-yl)pyrrolidin-3-yl)oxy)propan-2-yl)amino)pyridazin-3(2H)-one] |
| < 0.1 | C[C@@H](CN(C)C1CCN(C2CCN(c3ncc(C(F)(F)F)cn3)CC2)C1=O)Nc1cn[nH]c(=O)c1C(F)(F)F (stereo partly drawn) [Example 29, 5-(((S)-1-(methyl(2-oxo-1-(1-(5-(trifluoromethyl)pyrimidin-2-yl)piperidin-4-yl)pyrrolidin-3-yl)amino)propan-2-yl)amino)-4-(trifluoromethyl)pyridazin-3(2H)-one] |
| < 0.1 | C[C@@H](CO[C@@H]1CCN(C2CCN(c3cnc(C(F)(F)F)cn3)CC2)C1=O)Oc1cn[nH]c(=O)c1Br [Example 46B, 4-bromo-5-(((S)-1-(((R)-2-oxo-1-(1-(5-(trifluoromethyl)pyrazin-2-yl)piperidin-4-yl)pyrrolidin-3-yl)oxy)propan-2-yl)oxy)pyridazin-3(2H)-one] |
| < 0.1 | C[C@@H](CO[C@@H]1CCN(C2CCN(c3ccc(C#N)cn3)CC2)C1=O)Nc1cn[nH]c(=O)c1C(F)(F)F [Example 14B, 6-(4-((R)-2-oxo-3-((S)-2-((6-oxo-5-(trifluoromethyl)-1,6-dihydropyridazin-4-yl)amino)propoxy)pyrrolidin-1-yl)piperidin-1-yl)nicotinonitrile] |
| 0.1 to 1 | C[C@@H](CO[C@@H]1CCN(C2CCN(c3cnc(C(F)(F)F)cn3)CC2)C1=O)Oc1cn[nH]c(=O)c1C(F)(F)F [Example 31B, 5-(((S)-1-(((R)-2-oxo-1-(1-(5-(trifluoromethyl)pyrazin-2-yl)piperidin-4-yl)pyrrolidin-3-yl)oxy)propan-2-yl)oxy)-4-(trifluoromethyl)pyridazin-3(2H)-one] |
| 0.1 to 1 | C[C@@H](CO[C@H]1CCN(C2CCN(c3cnc(C(F)F)cn3)CC2)C1=O)Nc1cn[nH]c(=O)c1C(F)(F)F [Example 22A, 5-(((S)-1-(((S)-1-(1-(5-(difluoromethyl)pyrazin-2-yl)piperidin-4-yl)-2-oxopyrrolidin-3-yl)oxy)propan-2-yl)amino)-4-(trifluoromethyl)pyridazin-3(2H)-one] |
| < 0.1 | COC[C@@H](CO[C@@H]1CCN(C2CCN(c3ncc(C(F)(F)F)cn3)CC2)C1=O)Oc1cn[nH]c(=O)c1C(F)(F)F [Example 51B, 5-(((S)-1-methoxy-3-(((R)-2-oxo-1-(1-(5-(trifluoromethyl)pyrimidin-2-yl)piperidin-4-yl)pyrrolidin-3-yl)oxy)propan-2-yl)oxy)-4-(trifluoromethyl)pyridazin-3(2H)-one] |
| < 0.1 | C[C@@H](CO[C@H]1CCN(C2CCN(c3ncc(C(F)(F)F)cn3)CC2)C1=O)Oc1cn[nH]c(=O)c1C(F)(F)F [Example 20A, 5-(((S)-1-(((S)-2-oxo-1-(1-(5-(trifluoromethyl)pyrimidin-2-yl)piperidin-4-yl)pyrrolidin-3-yl)oxy)propan-2-yl)oxy)-4-(trifluoromethyl)pyridazin-3(2H)-one] |
| < 0.1 | C[C@@H](CO[C@H]1CCN(C2CCN(c3cnc(C(F)(F)F)cn3)CC2)C1=O)Oc1cn[nH]c(=O)c1C(F)(F)F [Example 31A, 5-(((S)-1-(((S)-2-oxo-1-(1-(5-(trifluoromethyl)pyrazin-2-yl)piperidin-4-yl)pyrrolidin-3-yl)oxy)propan-2-yl)oxy)-4-(trifluoromethyl)pyridazin-3(2H)-one] |
| < 0.1 | C[C@@H](COC1CCN(C2CCN(c3ncc(C(F)F)cn3)CC2)C1=O)Oc1cn[nH]c(=O)c1C(F)(F)F (stereo partly drawn) [Example 27, 5-(((2S)-1-((1-(1-(5-(difluoromethyl)pyrimidin-2-yl)piperidin-4-yl)-2-oxopyrrolidin-3-yl)oxy)propan-2-yl)oxy)-4-(trifluoromethyl)pyridazin-3(2H)-one] |
| ≥ 1 | C[C@@H]1CN(C2CCN(c3ncc(C(F)(F)F)cn3)CC2)C(=O)[C@H]1OC[C@H](C)Nc1cn[nH]c(=O)c1C(F)(F)F [Example 37A, 5-(((S)-1-(((3S,4R)-4-methyl-2-oxo-1-(1-(5-(trifluoromethyl)pyrimidin-2-yl)piperidin-4-yl)pyrrolidin-3-yl)oxy)propan-2-yl)amino)-4-(trifluoromethyl)pyridazin-3(2H)-one] |
| < 0.1 | COC[C@@H](CO[C@@H]1CCN(C2CCN(c3ccc(C#N)cn3)CC2)C1=O)Oc1cn[nH]c(=O)c1Br [Example 55B, 6-(4-((R)-3-((S)-2-((5-bromo-6-oxo-1,6-dihydropyridazin-4-yl)oxy)-3-methoxypropoxy)-2-oxopyrrolidin-1-yl)piperidin-1-yl)nicotinonitrile] |
| ≥ 1 | C[C@@H](CN[C@H]1CCN(C2CCN(c3ncc(C(F)(F)F)cn3)CC2)C1=O)Nc1cn[nH]c(=O)c1C(F)(F)F (single isomer, unassigned) [Example 26A] |
| < 0.1 | COC[C@@H](CO[C@@H]1CCN(C2CCN(c3ncc(C(F)(F)F)cn3)CC2)C1=O)Nc1cn[nH]c(=O)c1C(F)(F)F [Example 19B, 5-(((S)-1-methoxy-3-(((R)-2-oxo-1-(1-(5-(trifluoromethyl)pyrimidin-2-yl)piperidin-4-yl)pyrrolidin-3-yl)oxy)propan-2-yl)amino)-4-(trifluoromethyl)pyridazin-3(2H)-one] |
| < 0.1 | CCN(C(=O)COC[C@H](C)Nc1cn[nH]c(=O)c1C(F)(F)F)C1CCN(c2ncc(C(F)(F)F)cn2)CC1 [Example 7, (S)—N-ethyl-2-(2-((6-oxo-5-(trifluoromethyl)-1,6-dihydropyridazin-4-yl)amino)propoxy)-N-(1-(5-(trifluoromethyl)pyrimidin-2-yl)piperidin-4-yl)acetamide] |
| < 0.1 | COC[C@@H](COCC(=O)N(C)C1CCN(c2ncc(C(F)(F)F)cn2)CC1)Nc1cn[nH]c(=O)c1C(F)(F)F [Example 9, (S)-2-(3-methoxy-2-((6-oxo-5-(trifluoromethyl)-1,6-dihydropyridazin-4-yl)amino)propoxy)-N-methyl-N-(1-(5-(trifluoromethyl)pyrimidin-2-yl)piperidin-4-yl)acetamide] |
| < 0.1 | O=C1[C@H](OC[C@H](CNCC(F)(F)F)Nc2cn[nH]c(=O)c2C(F)(F)F)CCN1C1CCN(c2ncc(C(F)(F)F)cn2)CC1 [Example 62, 5-(((S)-1-(((R)-2-oxo-1-(1-(5-(trifluoromethyl)pyrimidin-2-yl)piperidin-4-yl)pyrrolidin-3-yl)oxy)-3-((2,2,2-trifluoroethyl)amino)propan-2-yl)amino)-4-(trifluoromethyl)pyridazin-3(2H)-one] |
| < 0.1 | COC[C@@H](CO[C@@H]1CCN(C2CCN(c3cnc(C(F)(F)F)cn3)CC2)C1=O)Nc1cn[nH]c(=O)c1C(F)(F)F [Example 18B] |
| < 0.1 | C[C@@H](CO[C@@H]1CCN([C@@H]2CCN(c3ncc(C(F)(F)F)cn3)C[C@@H]2O)C1=O)Nc1cn[nH]c(=O)c1C(F)(F)F [Example 59, 5-(((S)-1-(((R)-1-((3S,4R)-3-hydroxy-1-(5-(trifluoromethyl)pyrimidin-2-yl)piperidin-4-yl)-2-oxopyrrolidin-3-yl)oxy)propan-2-yl)amino)-4-(trifluoromethyl)pyridazin-3(2H)-one] |

The molecules below were run on NCI-H1373 cells (assay: Tumor growth in human lung cancer model NCI-H1373 (subcutaneous xenograft)). Settings: 100 mg/kg PO QD*28 days, NCI-H1373 tumors in CB-17 SCID mice, compared to vehicle (50% Labrasol).
Type: in vivo
Source text: Example B. PARP7 Inhibitors' Affect on Tumor Growth in Human Lung Cancer Models NCI-H1373
In this study, CB-17 SCID mice were inoculated subcutaneously at the right flank with NCI-H1373 cells for tumor development. Six days after tumor inoculation, 20 mice with tumor size ranging from 105-160 mm^3 (average tumor size 132 mm^3) were selected and assigned into 2 groups using stratified randomization with 10 mice in each group based upon their tumor volumes. The treatments were started from the next day post randomization (defined randomization day as day 0), and the mice were treated with vehicle (50% Labrasol), the compound of Example 57 (100 mg/kg PO. QD*28 days). The tumor sizes were measured three times per week during the treatment. The entire study was terminated on day 28.
Mean tumor volume and SEM were plotted (FIG. 1). Statistical significance, calculated using two-way ANOVA combined with Bonferroni post-test in which treatment group was compared to vehicle control, is indicated by an asterisk.

| Compound | tumor growth (mean tumor volume) |
| --- | --- |
| C[C@@H](CO[C@@H]1CCN([C@@H]2CCN(c3ncc(C(F)(F)F)cn3)C[C@H]2O)C1=O)Nc1cn[nH]c(=O)c1C(F)(F)F [Example 57, 5-(((S)-1-(((R)-1-((3R,4R)-3-hydroxy-1-(5-(trifluoromethyl)pyrimidin-2-yl)piperidin-4-yl)-2-oxopyrrolidin-3-yl)oxy)propan-2-yl)amino)-4-(trifluoromethyl)pyridazin-3(2H)-one] | significantly reduce tumor growth |
